# Data published in ChEMBL document CHEMBL1142661, “Structure-based drug discovery using GPCR homology modeling: successful virtual screening for antagonists of the alpha1A adrenergic receptor” (J Med Chem, 2005).
# Biological target: T1, Alpha-1A adrenergic receptor (Homo sapiens, UniProt P35348)
# T1 sequence (P35348 whole entry): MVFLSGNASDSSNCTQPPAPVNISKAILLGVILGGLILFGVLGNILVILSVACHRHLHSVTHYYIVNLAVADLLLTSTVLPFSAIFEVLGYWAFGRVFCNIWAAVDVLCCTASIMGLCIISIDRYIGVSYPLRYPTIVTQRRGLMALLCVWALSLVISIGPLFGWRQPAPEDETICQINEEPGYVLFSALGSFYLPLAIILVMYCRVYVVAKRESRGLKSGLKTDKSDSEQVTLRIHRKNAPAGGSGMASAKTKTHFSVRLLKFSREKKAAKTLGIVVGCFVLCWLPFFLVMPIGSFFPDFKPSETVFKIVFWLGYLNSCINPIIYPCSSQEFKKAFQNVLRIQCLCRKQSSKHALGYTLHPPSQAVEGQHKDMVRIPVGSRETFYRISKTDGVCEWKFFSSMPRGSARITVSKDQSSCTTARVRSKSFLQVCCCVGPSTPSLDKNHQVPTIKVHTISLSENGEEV
# Assay: Inhibition of [3H]prazosin binding to human adrenergic alpha-1A receptor expressed in CHO-K1 cell membranes
row,Ki [nM],Compound
1,300,Clc1ccc(C2(Cn3ccnc3)OCC(CN3CCN(CCc4ccccc4)CC3)O2)c(Cl)c1 (centres undefined)
2,3.6,COc1ccccc1N1CCN(CCCNc2cc(O)nc(Nc3c(Cl)cccc3Cl)n2)CC1
3,9.5,Nc1ccc(C(=O)NCCN2CCC(c3cccc4[nH]ccc34)CC2)cc1
4,1.4,O=C(NCCCCN1CCN(c2csc3cc(F)ccc23)CC1)c1cnccn1
